# Target: T1, P2X7 receptor (Homo sapiens, UniProt Q99572)
# T1 construct: host or cells: THP-1 cells differentiated with LPS and IFN-γ
# T1 sequence (Q99572 1-595): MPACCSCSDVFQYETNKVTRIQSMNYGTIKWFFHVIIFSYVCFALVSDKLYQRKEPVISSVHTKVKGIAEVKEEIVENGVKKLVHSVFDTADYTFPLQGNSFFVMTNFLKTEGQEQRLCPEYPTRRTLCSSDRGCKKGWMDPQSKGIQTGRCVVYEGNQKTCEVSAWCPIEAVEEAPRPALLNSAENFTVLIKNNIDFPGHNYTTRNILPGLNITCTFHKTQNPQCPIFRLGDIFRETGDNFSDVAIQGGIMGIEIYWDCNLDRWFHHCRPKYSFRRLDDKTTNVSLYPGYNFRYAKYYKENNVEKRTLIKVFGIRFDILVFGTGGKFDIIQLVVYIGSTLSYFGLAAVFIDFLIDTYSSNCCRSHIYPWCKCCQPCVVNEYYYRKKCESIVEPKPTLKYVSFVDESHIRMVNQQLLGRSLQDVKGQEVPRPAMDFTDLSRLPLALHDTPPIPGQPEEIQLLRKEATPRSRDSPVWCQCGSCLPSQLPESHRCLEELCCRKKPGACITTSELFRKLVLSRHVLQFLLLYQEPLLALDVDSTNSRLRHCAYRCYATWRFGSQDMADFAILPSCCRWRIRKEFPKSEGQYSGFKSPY
# Assay: IL-1β release assay in differentiated THP-1 cells stimulated with BzATP (Example 9)
# Type: cell-based
# Design: inhibition: dose or concentration left out as unconfirmed
# Conditions: 0.1 μM compound; differentiated THP-1 cells, BzATP 250 uM; "*" class symbols; read-out: IL-1β % Inhib. ("*" symbols: at 0.1 μM)
# Procedure, shortened: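 THP-1 cells differentiated 16 h with LPS and IFN-γ (100 ng/mL each), re-primed 2 h with LPS, then compound-pretreated 30 min before 250 uM BzATP for 45 min. Supernatant IL-1β quantified by ELISA; background-adjusted percent inhibition fitted to four-parameter logistic for IC50.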
row,inhibition at 0.1 µM [%],SMILES
1,0 to 25,COc1ccc(C(=O)Nc2cccc3c(=O)n(Cc4ccc(OC(F)(F)F)cc4)ccc23)cc1C [Compound 1608]

# Same assay, conditions: 0.1 μM compound; differentiated THP-1 cells, BzATP 250 uM; symbols * to ****; read-out: IL-1β % Inhib. (asterisk symbols: at 0.1 μM)
row,inhibition at 0.1 µM [%],SMILES
1,0 to 25,C[C@H]1CC[C@H](C(=O)Nc2cccc3c(=O)n(CC4CCOCC4)ccc23)CC1 [Compound 1395]
2,0 to 25,COc1cc(OC)cc(C(=O)Nc2cccc3c(=O)n(CC(C)(C)C)ccc23)c1 [Compound 1245]

# Same assay, conditions: 0.3 μM compound; differentiated THP-1 cells, BzATP 250 uM; "+" class symbols; read-out: IL-1β % Inhib. @ 0.3 μM
row,inhibition at 0.3 µM [%],SMILES
1,≥ 76,"COCCn1ccc2c(NC(=O)Cc3ccc(Cl)c(C(F)(F)F)c3)cccc2c1=O [Compound 1623, 2-(4-Chloro-3-trifluoromethyl-phenyl)-N-[2-(2-methoxy-ethyl)-1-oxo-1,2-dihydro-isoquinolin-5-yl]-acetamide]"
2,≥ 76,CC(C)(C)OC(=O)N1CCC[C@H]1Cn1ccc2c(NC(=O)CC3CCCCCC3)cccc2c1=O [Compound 1619]
3,26 to 50,O=C(Cc1cccc(C(F)(F)F)c1F)Nc1cccc2c(=O)n(Cc3ccccn3)ccc12 [Compound 1627]
4,0 to 25,CC(C)C(C(=O)Nc1cccc2c(=O)n(CCN(C)C)ccc12)c1ccc(Cl)cc1 (stereo not drawn) [Compound 1612]

# Same assay, conditions: 0.3 μM compound; differentiated THP-1 cells, BzATP 250 uM; '+' class symbols; read-out: IL-1β % Inhib. @ 0.3 μM
row,inhibition at 0.3 µM [%],SMILES
1,26 to 50,CC(=O)OCCn1ccc2c(NC(=O)c3ccc(C(F)(F)F)cc3C(F)(F)F)cccc2c1=O [Compound 1014]
2,0 to 25,Cc1ccc(C(=O)Nc2cccc3c(=O)n(CC4CCOCC4)ccc23)c(C)c1 [Compound 1087]
3,0 to 25,CN(C)CCn1ccc2c(NC(=O)c3ccc(C(C)(C)C)cc3)cccc2c1=O [Compound 1147]
4,0 to 25,COc1ccc(CC(=O)Nc2cccc3c(=O)n(CC4CCOCC4)ccc23)cc1 [Compound 1105]
5,0 to 25,Cc1cc(Cl)ccc1C(=O)Nc1cccc2c(=O)n(CCN(C)C)ccc12 [Compound 1166]
6,26 to 50,CC(=O)OCCn1ccc2c(NC(=O)C3CCN(C(=O)OC(C)(C)C)CC3)cccc2c1=O [Compound 1012]
7,0 to 25,CCOc1cccc(C(=O)Nc2cccc3c(=O)n(CC(C)(C)C)ccc23)c1 [Compound 1053]
8,0 to 25,Cc1ccc(Cl)cc1C(=O)Nc1cccc2c(=O)n(CC3CCOCC3)ccc12 [Compound 1129]
9,≥ 76,Cc1ccc(CCC(=O)Nc2cccc3c(=O)n(CCN(C)C)ccc23)cc1 [Compound 1002]
10,0 to 25,CCOc1cccc(C(=O)Nc2cccc3c(=O)n(CC4CCOCC4)ccc23)c1 [Compound 1030]
11,≥ 76,CC(=O)OCCn1ccc2c(NC(=O)Cc3ccc(Cl)c(Cl)c3)cccc2c1=O [Compound 1023]
12,≥ 76,"Cn1ccc2c(NC(=O)CC3CCCCCC3)cccc2c1=O [Compound 1024, 2-Cycloheptyl-N-(2-methyl-1-oxo-1,2-dihydro-isoquinolin-5-yl)-acetamide]"
13,0 to 25,COc1cccc(CCC(=O)Nc2cccc3c(=O)n(C)ccc23)c1 [Compound 1058]
14,0 to 25,Cc1cccc(C(=O)Nc2cccc3c(=O)n(CC4CCOCC4)ccc23)c1 [Compound 1090]
15,0 to 25,CN(C)CCn1ccc2c(NC(=O)CCc3ccc(Cl)cc3)cccc2c1=O [Compound 1176]
16,0 to 25,O=C(Nc1cccc2c(=O)n(CCN3CCOCC3)ccc12)c1ccccc1Cl [Compound 1188]
17,0 to 25,COc1ccc(C(=O)Nc2cccc3c(=O)n(CC4CCOCC4)ccc23)cc1Cl [Compound 1029]
18,0 to 25,Cc1cc(C(=O)Nc2cccc3c(=O)n(CCN(C)C)ccc23)ccc1F [Compound 1175]
19,0 to 25,Cc1ccc(Cl)c(C(=O)Nc2cccc3c(=O)n(CCN(C)C)ccc23)c1 [Compound 1179]
20,0 to 25,CN(C)CCn1ccc2c(NC(=O)c3cc4ccccc4o3)cccc2c1=O [Compound 1162]
21,26 to 50,O=C(Nc1cccc2c(=O)n(CC3CCOCC3)ccc12)c1ccccc1Cl [Compound 1082]

# Same assay, conditions: 0.3 μM compound; differentiated THP-1 cells, BzATP 250 uM; symbols + to ++++; read-out: IL-1β % Inhib. @ 0.3 μM
row,inhibition at 0.3 µM [%],SMILES
1,0 to 25,CC(=O)OCCn1ccc2c(NC(=O)Cc3ccc(S(C)(=O)=O)cc3)cccc2c1=O [Compound 1384]
2,26 to 50,COc1cc(CC(=O)Nc2cccc3c(=O)n(Cc4cccnc4)ccc23)cc(OC)c1 [Compound 1360]
3,0 to 25,COc1ccc(CC(=O)Nc2cccc3c(=O)n(CCN4CCOCC4)ccc23)cc1 [Compound 1212]
4,0 to 25,CCOc1ccccc1CC(=O)Nc1cccc2c(=O)n(CCOC)ccc12 [Compound 1336]
5,0 to 25,Cc1ccc(Cl)c(C(=O)Nc2cccc3c(=O)n(CC(C)(C)C)ccc23)c1 [Compound 1282]
6,≥ 76,CC(=O)OCCn1ccc2c(NC(=O)CC3CCCCC3)cccc2c1=O [Compound 1379]
7,0 to 25,Cc1ccc(CC(=O)Nc2cccc3c(=O)n(CCN4CCOCC4)ccc23)cc1 [Compound 1214]
8,0 to 25,O=C(CC1CC2CC[C@H]1C2)Nc1cccc2c(=O)n(CCN3CCOCC3)ccc12 (stereo partly drawn) [Compound 1222]
9,0 to 25,CC(C)(C)Cn1ccc2c(NC(=O)CC3CC4CC[C@H]3C4)cccc2c1=O (stereo partly drawn) [Compound 1270]
10,26 to 50,O=C(Nc1cccc2c(=O)n(Cc3cccnc3)ccc12)c1ccccc1Cl [Compound 1344]
11,26 to 50,Cc1cccc(CCC(=O)Nc2cccc3c(=O)n(CCN4CCOCC4)ccc23)c1 [Compound 1237]
12,26 to 50,O=C(CCc1cccc(Cl)c1)Nc1cccc2c(=O)n(CCN3CCOCC3)ccc12 [Compound 1242]
13,0 to 25,O=C(Cc1ccccc1F)Nc1cccc2c(=O)n(CCN3CCOCC3)ccc12 [Compound 1204]
14,0 to 25,COCCn1ccc2c(NC(=O)[C@H]3C[C@@H]4CC[C@H]3C4)cccc2c1=O [Compound 1332]
15,0 to 25,COc1ccc(OC)c(CC(=O)Nc2cccc3c(=O)n(CCN4CCOCC4)ccc23)c1 [Compound 1207]
16,0 to 25,Cc1ccc(C(=O)Nc2cccc3c(=O)n(CCN4CCOCC4)ccc23)cc1Cl [Compound 1220]
17,0 to 25,CC(C)(C)Cn1ccc2c(NC(=O)Cc3ccccc3F)cccc2c1=O [Compound 1252]
18,0 to 25,Cc1cccc(CC(=O)Nc2cccc3c(=O)n(CC(C)(C)C)ccc23)c1 [Compound 1259]

# Same assay, conditions: THP-1; read-out: IL-1β % Inhib.
row,inhibition [%],SMILES
1,0 to 25,O=C(CCCc1ccccc1)Nc1cccc2c(=O)n(CCCN3CCCC3=O)ccc12 [Compound 1525]
2,26 to 50,O=C(CCc1ccc(Cl)cc1)Nc1cccc2c(=O)n(CCCN3CCCC3=O)ccc12 [Compound 1537]
3,0 to 25,CCOc1ccc(C(=O)Nc2cccc3c(=O)n(Cc4cccnc4)ccc23)cc1 [Compound 1444]
4,26 to 50,CN1CCC(Cn2ccc3c(NC(=O)C4C[C@@H]5CC[C@H]4C5)cccc3c2=O)CC1 (stereo partly drawn) [Compound 1483]
5,0 to 25,CCOc1ccc(CC(=O)Nc2cccc3c(=O)n(Cc4ccc(OC(F)(F)F)cc4)ccc23)cc1 [Compound 1584]
6,0 to 25,CN1CCC(Cn2ccc3c(NC(=O)CCCc4ccccc4)cccc3c2=O)CC1 [Compound 1475]
7,0 to 25,Cc1cc(Cl)ccc1C(=O)Nc1cccc2c(=O)n(Cc3ccc(OC(F)(F)F)cc3)ccc12 [Compound 1592]
8,0 to 25,Cc1ccccc1CCC(=O)Nc1cccc2c(=O)n(Cc3ccc(OC(F)(F)F)cc3)ccc12 [Compound 1550]
9,0 to 25,O=C(Cc1ccccc1Cl)Nc1cccc2c(=O)n(CCCN3CCCC3=O)ccc12 [Compound 1519]
10,0 to 25,Cc1cccc(C(=O)Nc2cccc3c(=O)n(Cc4ccc(OC(F)(F)F)cc4)ccc23)c1C [Compound 1563]
11,0 to 25,COCCn1ccc2c(NC(=O)c3ccc(C(C)(C)C)cc3)cccc2c1=O [Compound 1430]
12,0 to 25,O=C(Nc1cccc2c(=O)n(Cc3ccc(OC(F)(F)F)cc3)ccc12)c1ccc2c(c1)OCCCO2 [Compound 1596]
13,0 to 25,CN1CCC(Cn2ccc3c(NC(=O)Cc4cccc5ccccc45)cccc3c2=O)CC1 [Compound 1470]
14,0 to 25,CN1CCC(Cn2ccc3c(NC(=O)c4ccc(-c5ccccc5)o4)cccc3c2=O)CC1 [Compound 1458]
15,0 to 25,COc1ccc(OC)c(CC(=O)Nc2cccc3c(=O)n(Cc4ccc(OC(F)(F)F)cc4)ccc23)c1 [Compound 1578]

# Same assay, conditions: THP-1 cells, BzATP-stimulated IL-1β release, four parameter logistic fit
row,IC50 [nM],SMILES
1,> 1000,CC(=O)OCCn1ccc2c(NC(=O)Cc3ccc(S(C)(=O)=O)cc3)cccc2c1=O [Compound 1384]
2,9.24,"COCCn1ccc2c(NC(=O)Cc3ccc(Cl)c(C(F)(F)F)c3)cccc2c1=O [Compound 1623, 2-(4-Chloro-3-trifluoromethyl-phenyl)-N-[2-(2-methoxy-ethyl)-1-oxo-1,2-dihydro-isoquinolin-5-yl]-acetamide]"
3,326,CC(=O)OCCn1ccc2c(NC(=O)c3ccc(C(F)(F)F)cc3C(F)(F)F)cccc2c1=O [Compound 1014]
4,41.5,CC(=O)OCCn1ccc2c(NC(=O)CC3CCCCC3)cccc2c1=O [Compound 1379]
5,67.2,CC(C)(C)OC(=O)N1CCC[C@H]1Cn1ccc2c(NC(=O)CC3CCCCCC3)cccc2c1=O [Compound 1619]
6,422,CC(=O)OCCn1ccc2c(NC(=O)C3CCN(C(=O)OC(C)(C)C)CC3)cccc2c1=O [Compound 1012]
7,72.3,Cc1ccc(CCC(=O)Nc2cccc3c(=O)n(CCN(C)C)ccc23)cc1 [Compound 1002]
8,53.5,CC(=O)OCCn1ccc2c(NC(=O)Cc3ccc(Cl)c(Cl)c3)cccc2c1=O [Compound 1023]
9,31.5,"Cn1ccc2c(NC(=O)CC3CCCCCC3)cccc2c1=O [Compound 1024, 2-Cycloheptyl-N-(2-methyl-1-oxo-1,2-dihydro-isoquinolin-5-yl)-acetamide]"
10,416,O=C(Cc1cccc(C(F)(F)F)c1F)Nc1cccc2c(=O)n(Cc3ccccn3)ccc12 [Compound 1627]
11,> 1000,CC(C)C(C(=O)Nc1cccc2c(=O)n(CCN(C)C)ccc12)c1ccc(Cl)cc1 (stereo not drawn) [Compound 1612]

# Source: US8546579B2, “Bicycloheteroaryl compounds as P2X7 modulators and uses thereof” (Evotec (US) Inc., priority 2006, dated 2013)
